Laboratory results as given in ChEMBL document CHEMBL4308841, “Synthesis, in vitro antiproliferative activity, and kinase inhibitory effects of pyrazole-containing diarylureas and diarylamides” (Eur J Med Chem, 2018).
pIC50: −log10 of the molar value.

Key:
OVCAR-5 = experiment: Growth inhibition of human OVCAR5 cells assessed as cell growth at 1 uM incubated for 48 hrs by sulforhodamine B assay relative to control; assay type: functional; details: OVCAR-5, 48 h, read-out: Activity
HT-29 [1] = experiment: Growth inhibition of human HT-29 cells assessed as cell growth at 100 uM incubated for 48 hrs by sulforhodamine B assay relative to control; assay type: functional; details: HT-29, 48 h, read-out: Activity
LOX IMVI [2] = experiment: Growth inhibition of human LOXIMVI cells assessed as cell growth at 0.01 uM incubated for 48 hrs by sulforhodamine B assay relative to control; assay type: functional; details: read-out: Activity
LOX IMVI [3] = experiment: Growth inhibition of human LOXIMVI cells assessed as cell growth at 100 uM incubated for 48 hrs by sulforhodamine B assay relative to control; assay type: functional; details: read-out: Activity
Hs-578T [4] = experiment: Growth inhibition of human Hs578T cells incubated for 48 hrs by sulforhodamine B assay; assay type: functional, cell-based
MDA-MB-468 = experiment: Growth inhibition of human MDA-MB-468 cells assessed as cell growth at 100 uM incubated for 48 hrs by sulforhodamine B assay relative to control; assay type: functional; details: MDA-MB-468, 48 h, read-out: Activity
NCI-H322M [5] = experiment: Growth inhibition of human NCI-H322M cells assessed as cell growth at 0.1 uM incubated for 48 hrs by sulforhodamine B assay relative to control; assay type: functional; details: read-out: Activity
HOP-62 = experiment: Growth inhibition of human HOP62 cells assessed as cell growth at 0.01 uM incubated for 48 hrs by sulforhodamine B assay relative to control; assay type: functional; details: HOP-62, 48 h, read-out: Activity
HCC 2998 [6] = experiment: Growth inhibition of human HCC2998 cells assessed as cell growth at 0.01 uM incubated for 48 hrs by sulforhodamine B assay relative to control; assay type: functional; details: HCC 2998, 48 h, read-out: Activity
UACC-62 = experiment: Growth inhibition of human UACC62 cells incubated for 48 hrs by sulforhodamine B assay; assay type: functional, cell-based; details: UACC-62, 48 h
NCI-H322M [7] = experiment: Growth inhibition of human NCI-H322M cells assessed as cell growth at 1 uM incubated for 48 hrs by sulforhodamine B assay relative to control; assay type: functional; details: read-out: Activity
SK-MEL-28 = experiment: Growth inhibition of human SK-MEL-28 cells assessed as cell growth at 1 uM incubated for 48 hrs by sulforhodamine B assay relative to control; assay type: functional; details: SK-MEL-28, 48 h, read-out: Activity
SK-MEL-2 = experiment: Growth inhibition of human SK-MEL-2 cells assessed as cell growth at 0.01 uM incubated for 48 hrs by sulforhodamine B assay relative to control; assay type: functional; details: SK-MEL-2, 48 h, read-out: Activity
UACC-257 = experiment: Growth inhibition of human UACC257 cells assessed as cell growth at 1 uM incubated for 48 hrs by sulforhodamine B assay relative to control; assay type: functional; details: UACC-257, 48 h, read-out: Activity
HCC 2998 [8] = experiment: Growth inhibition of human HCC2998 cells incubated for 48 hrs by sulforhodamine B assay; assay type: functional, cell-based; details: HCC 2998, 48 h
HT-29 [9] = experiment: Growth inhibition of human HT-29 cells assessed as cell growth at 1 uM incubated for 48 hrs by sulforhodamine B assay relative to control; assay type: functional; details: HT-29, 48 h, read-out: Activity
Hs-578T [10] = experiment: Growth inhibition of human Hs578T cells assessed as cell growth at 100 uM incubated for 48 hrs by sulforhodamine B assay relative to control; assay type: functional; details: read-out: Activity
SNB-75 = experiment: Growth inhibition of human SNB75 cells assessed as cell growth at 0.1 uM incubated for 48 hrs by sulforhodamine B assay relative to control; assay type: functional; details: SNB-75, 48 h, read-out: Activity
RXF 393 = experiment: Growth inhibition of human RXF393 cells assessed as cell growth at 100 uM incubated for 48 hrs by sulforhodamine B assay relative to control; assay type: functional; details: RXF 393, 48 h, read-out: Activity
A498 = experiment: Growth inhibition of human A498 cells incubated for 48 hrs by sulforhodamine B assay; assay type: functional, cell-based; details: A498, 48 h
SN12C = experiment: Growth inhibition of human SN12C cells assessed as cell growth at 0.1 uM incubated for 48 hrs by sulforhodamine B assay relative to control; assay type: functional; details: read-out: Activity
OVCAR-4 = experiment: Growth inhibition of human OVCAR4 cells assessed as cell growth at 0.01 uM incubated for 48 hrs by sulforhodamine B assay relative to control; assay type: functional; details: OVCAR-4, 48 h, read-out: Activity
UO-31 = experiment: Growth inhibition of human UO31 cells assessed as cell growth at 100 uM incubated for 48 hrs by sulforhodamine B assay relative to control; assay type: functional; details: UO-31, 48 h, read-out: Activity
NCI/ADR-RES = experiment: Growth inhibition of human NCI/ADR-RES cells assessed as cell growth at 1 uM incubated for 48 hrs by sulforhodamine B assay relative to control; assay type: functional; details: read-out: Activity
SNB-19 = experiment: Growth inhibition of human SNB19 cells incubated for 48 hrs by sulforhodamine B assay; assay type: functional, cell-based; details: SNB-19, 48 h
COLO 205 = experiment: Growth inhibition of human COLO205 cells assessed as cell growth at 0.01 uM incubated for 48 hrs by sulforhodamine B assay relative to control; assay type: functional; details: COLO 205, 48 h, read-out: Activity
T47D = experiment: Growth inhibition of human T47D cells assessed as cell growth at 0.1 uM incubated for 48 hrs by sulforhodamine B assay relative to control; assay type: functional; details: read-out: Activity
MDA-MB-435 = experiment: Growth inhibition of human MDA-MB-435 cells incubated for 48 hrs by sulforhodamine B assay; assay type: functional, cell-based; details: MDA-MB-435, 48 h
A549 = experiment: Growth inhibition of human A549/ATCC cells assessed as cell growth at 1 uM incubated for 48 hrs by sulforhodamine B assay relative to control; assay type: functional; details: A549, 48 h, read-out: Activity
NCI-H322M [11] = experiment: Growth inhibition of human NCI-H322M cells assessed as cell growth at 100 uM incubated for 48 hrs by sulforhodamine B assay relative to control; assay type: functional; details: read-out: Activity
[12] = read-out: LC50 (the source's name)
[13] = read-out: pLC50 (the source's name) (converted)

In the case of `O=C(Nc1cccc(-n2cc(-c3ccncc3)c(-c3cc(O)cc(Cl)c3)n2)c1)Nc1ccc(Cl)c(C(F)(F)F)c1`, the growth at 1 µM (OVCAR-5) was 109%, the growth at 100 µM (HT-29 [1]) was -88% and the growth at 0.01 µM (LOX IMVI [2]) was 90%. For the same compound, the growth at 100 µM (LOX IMVI [3]) was -89%, the GI50 (Hs-578T [4]; read-out: GI50) was 3.2 µM and the CC50 (Hs-578T [4]; [12]) was greater than 100 µM. For the same compound, the TGI (Hs-578T [4]; read-out: TGI) was greater than 100 µM, the GI50 (Hs-578T [4]; read-out: pGI50 (converted)) was 3.31 µM and the CC50 (Hs-578T [4]; [13]) was greater than 100 µM. It also gave a TGI (Hs-578T [4]; read-out: pTGI (converted)) greater than 100 µM, a growth at 100 µM (MDA-MB-468) of -29% and a growth at 0.1 µM (NCI-H322M [5]) of 101%. For the same compound, the growth at 0.01 µM (HOP-62) was 99%, the growth at 0.01 µM (HCC 2998 [6]) was 97% and the pIC50 (UACC-62) was 5.68. The GI50 (UACC-62; read-out: GI50) was 2 µM, the CC50 (UACC-62; [12]) was 91.9 µM and the TGI (UACC-62; read-out: TGI) was 43.8 µM. It also gave a GI50 (UACC-62; read-out: pGI50 (converted)) of 2.09 µM, a CC50 (UACC-62; [13]) of 9.12 µM and a TGI (UACC-62; read-out: pTGI (converted)) of 4.37 µM. The growth at 1 µM (NCI-H322M [7]) was 93%, the growth at 1 µM (SK-MEL-28) was 81% and the growth at 0.01 µM (SK-MEL-2) was 99%. The growth at 1 µM (UACC-257) was 58%, the GI50 (HCC 2998 [8]; read-out: GI50) was 3.93 µM and the CC50 (HCC 2998 [8]; [12]) was 43 µM. The TGI (HCC 2998 [8]; read-out: TGI) was 13.4 µM, the GI50 (HCC 2998 [8]; read-out: pGI50 (converted)) was 3.89 µM and the CC50 (HCC 2998 [8]; [13]) was 42.7 µM. The TGI (HCC 2998 [8]; read-out: pTGI (converted)) was 13.5 µM, the growth at 1 µM (HT-29 [9]) was 99% and the growth at 100 µM (Hs-578T [10]) was 1%. The growth at 0.1 µM (SNB-75) was 88%, the growth at 100 µM (RXF 393) was -72% and the GI50 (A498; read-out: GI50) was 3.9 µM. For the same compound, the CC50 (A498; [12]) was 44 µM, the TGI (A498; read-out: TGI) was 15.5 µM and the GI50 (A498; read-out: pGI50 (converted)) was 3.89 µM. The CC50 (A498; [13]) was 44.7 µM, the TGI (A498; read-out: pTGI (converted)) was 15.5 µM and the growth at 0.1 µM (SN12C) was 100%. For the same compound, the growth at 0.01 µM (OVCAR-4) was 99%, the growth at 100 µM (UO-31) was -73% and the growth at 1 µM (NCI/ADR-RES) was 97%. It also gave a GI50 (SNB-19; read-out: GI50) of 3.7 µM, a CC50 (SNB-19; [12]) greater than 100 µM and a TGI (SNB-19; read-out: TGI) of 15.9 µM. It also gave a GI50 (SNB-19; read-out: pGI50 (converted)) of 3.72 µM, a CC50 (SNB-19; [13]) greater than 100 µM and a TGI (SNB-19; read-out: pTGI (converted)) of 16.6 µM. It also gave a growth at 0.01 µM (COLO 205) of 102%, a growth at 0.1 µM (T47D) of 90% and a GI50 (MDA-MB-435; read-out: GI50) of 1.73 µM. The LC50 (MDA-MB-435; read-out: LC50) was 55.2 µM, the TGI (MDA-MB-435; read-out: TGI) was 30 µM and the GI50 (MDA-MB-435; read-out: pGI50 (converted)) was 1.78 µM. For the same compound, the LC50 (MDA-MB-435; read-out: pLC50 (converted)) was 8.51 µM, the TGI (MDA-MB-435; read-out: pTGI (converted)) was 3.89 µM and the growth at 1 µM (A549) was 81%. The growth at 100 µM (NCI-H322M [11]) was -81%.
